Results on six compounds are retold here after ChEMBL document CHEMBL1130360, “3-[(3-Hydroxymethyl)-4-hydroxybutyl]imidazo[4,5-b]pyridinesnovel antiviral agents” (Bioorg Med Chem Lett, 1997).

Structures are written as SMILES. Converted amounts (≈) assume the structure as drawn. A value given as a limit tells only on which side of the number the result lay.

Experiment [1] in a line: Selectivity is determined by CC50/EC50 of VZV virus. The class given is functional.
For experiment [2], the system named is HEL. The experiment is described as follows: Cytotoxicity of compound against herpes simplex virus 1 infected human embryonic lung cells. Type of experiment: functional.
The nature of experiment [3]: Selectivity is determined by CC50/EC50 of cytopathic effect inhibition against herpes simplex virus 2. Type of experiment: functional. (In general: Protection from cytopathic effect is a common read-out in antiviral testing.)
Experiment [4] deals with HEL. The experiment is described as follows: Cytotoxicity of compound against herpes simplex virus-2 infected human embryonic lung cells. Type of experiment: functional.
Experiment [5] is described as follows: Selectivity is determined by CC50/EC50 of cytopathic effect inhibition against herpes simplex virus 1. The class given is functional.
A further experiment concerns Human betaherpesvirus 5. The experiment is described as follows: The compound was tested for the cytomegalovirus; Effective concentration required to inhibit 50% virus proliferation. Type of experiment: functional, organism-based.
Experiment [6] has as its system HEL. The experiment is described as follows: Cytotoxicity of compound against human cytomegalo virus infected human embryonic lung cells. The class given is functional.
The subject of experiment [7] is Human alphaherpesvirus 2. Description: (§1) The compound was tested for the cytopathic effect inhibition against herpes simplex virus 2; Effective concentration required to inhibit 50% virus proliferation. Type of experiment: functional, organism-based.
Experiment [8] relates to Human alphaherpesvirus 3. The experiment is described as follows: The compound was tested for the viral plaque reduction against VZV virus; Effective concentration required to inhibit 50% virus proliferation. Type of experiment: functional, organism-based.
A short description of experiment [9]: Selectivity is determined by CC50/EC50 of cytomegalovirus. Type of experiment: functional.
Experiment [10] relates to Human alphaherpesvirus 1. The experiment is described as follows: The compound was tested for the cytopathic effect inhibition against herpes simplex virus 1; Effective concentration required to inhibit 50% virus proliferation. The class given is functional, organism-based.
For experiment [11], the system named is HEL. Description: Cytotoxicity of compound against varicella zoster virus infected human embryonic lung cells. The class given is functional.
In experiment [12] the test system is Human alphaherpesvirus 2. The experiment is described as follows: The compound was tested for the viral plaque reduction against herpes simplex virus 2; Effective concentration required to inhibit 50% virus proliferation. Type of experiment: functional, organism-based.
The subject of experiment [13] is Human alphaherpesvirus 1. The experiment is described as follows: The compound was tested for the viral plaque reduction against herpes simplex virus 1; Effective concentration required to inhibit 50% virus proliferation. Type of experiment: functional, organism-based.
The nature of experiment [14]: Selectivity is determined by CC50/EC50 of viral plaque reduction against herpes simplex virus 2. The class given is functional.
The nature of experiment [15]: Selectivity is determined by CC50/EC50 of viral plaque reduction against herpes simplex virus 1. The class given is functional.
The test system of experiment [16] is HEL. The experiment is described as follows: The compound was tested for the viral plaque reduction against herpes simplex virus 2; Cytotoxicity concentration required to reduce 50% human embryonic lung cells. The class given is functional.
Experiment [17] has as its system Human alphaherpesvirus 3. Described as §1.

For `OCC(CO)CCn1cnc2cc(Cl)c(Cl)nc21`, the SI in [1] was greater than 8.5; in experiment [3], 0; in experiment [5], 0; in experiment [9], 0. The CC50 in the experiment on HEL [2], in the experiment with HEL [4], in the experiment with HEL [6] and in the experiment on HEL [11] was greater than 100 µg/mL in each case. Moreover, the EC50 with Human betaherpesvirus 5 is greater than 100 µg/mL; in the experiment with Human alphaherpesvirus 2 [7] it was greater than 100 µg/mL; with Human alphaherpesvirus 3 [8] it was 11.7 µg/mL (≈ 40.3 µM); with Human alphaherpesvirus 1 [10], greater than 100 µg/mL.
In the case of `Nc1nc2c(cc1Cl)nc(C(F)(F)F)n2CCC(CO)CO`, the EC50 is greater than 100 µg/mL in the experiment on Human alphaherpesvirus 2 [12]; greater than 100 µg/mL in the experiment on Human alphaherpesvirus 1 [13]; greater than 100 µg/mL in the experiment with Human betaherpesvirus 5; greater than 100 µg/mL with Human alphaherpesvirus 2 [7]; 1.2 µg/mL (≈ 3.54 µM) in the experiment on Human alphaherpesvirus 1 [10]. Moreover, the SI in experiment [3] was 0; in [14], 0; in experiment [5], greater than 83; in experiment [15], 0; in [9], 0. The CC50 in the experiment with HEL [4], with HEL [6], in the experiment on HEL [16] and in the experiment with HEL [11] was greater than 100 µg/mL in each case.
In turn, `CC(=O)OCC(CCn1cnc2cc(Cl)c(Cl)nc21)COC(C)=O` had an EC50 with Human betaherpesvirus 5 of 132 µg/mL (≈ 353 µM).
For the compound `OCC(CO)CCn1cnc2nc(Cl)c(Cl)cc21`, the SI in [1] is on record as greater than 2; in [3], 0; in experiment [5], 0; in [9] it was 0. The CC50 with HEL [4], in the experiment with HEL [6] and in the experiment with HEL [11] was greater than 100 µg/mL throughout. The EC50 in the experiment on Human betaherpesvirus 5 is greater than 100 µg/mL; in the experiment with Human alphaherpesvirus 2 [7], greater than 100 µg/mL; with Human alphaherpesvirus 3 [8], 49.8 µg/mL (≈ 172 µM); in the experiment with Human alphaherpesvirus 1 [10], greater than 100 µg/mL.
As for `Nc1nc2c(ncn2COCCO)c(=O)[nH]1` [ACYCLOVIR], the EC50 in the experiment with Human alphaherpesvirus 2 [12] was 1.1 µg/mL (≈ 4.88 µM); in the experiment with Human alphaherpesvirus 2 [7], 0.2 µg/mL (≈ 0.888 µM); in the experiment with Human alphaherpesvirus 3 [17], 0.6 µg/mL (≈ 2.66 µM).
With `Nc1nc2c(ncn2COC(CO)CO)c(=O)[nH]1` [GANCICLOVIR], in the experiment on Human betaherpesvirus 5, the EC50 was 0.1 µg/mL (≈ 0.392 µM).

One may read the CC50 as the concentration giving 50% cytotoxicity. Low values mean harm at low concentration, high ones better tolerance by the cells. By EC50 is commonly meant the concentration that produces a half-maximal response. High values mean a need for much substance, low ones an effect from little substance.
